Laboratory results as given in paper PMC4926326, “Synthesis, Biological Activity, and Apoptotic Properties of NO-Donor/Enmein-Type ent-Kauranoid Hybrids” (International Journal of Molecular Sciences, 2016).
Values after ≈ are worked out from the molar mass of the structure shown. Like-named read-outs stand apart in the source and are kept apart here.

Tests used:
[1] = tested on: Bacillus subtilis (CMCC 63501); test: Antibacterial assay, microbroth dilution MIC; type: cell-based; conditions: Bacillus subtilis, CMCC63501; 35 °C, 18 h; read-out: MIC B. subtilis
Source text: (§1) The antibacterial activity of NO donor/enmein-type ent-kauranoid hybrids 9a–i against the Gram-negative bacterium Escherichia coli (ATCC 25922), Gram-positive bacterium Staphylococcus aureus (ATCC 29213) and Bacillus subtilis (CMCC 63501), and the fungus Monilia albicans (ATCC 10231) was first disclosed and summarized in Table 1. […] Thus, the introduction of NO-donor substituent groups at the 14-position of enmein-type 6,7-seco-ent-kauranoid could improve antimicrobial activity against S. aureus and B. subtilis.
(§2) The minimal inhibitory concentrations (MICs) were carried out by microbroth dilution method described by the Clinical Laboratory Standards Institute. A stock solution of all the target compounds was prepared with DMSO-medium (1:2), and then graded quantities of the test compounds were diluted with medium. The specified concentration suspension of fungus and bacterium contained approximately 10^3, and 10^5 CFU/mL was added into microtitration plates. The inoculated 96-well plates were incubated at 35 °C for 18 h. MIC was defined as the lowest concentrations that prevented visible growth of the bacteria.

[2] = tested on: Escherichia coli (ATCC 25922); test: Antibacterial assay, microbroth dilution MIC; type: cell-based; conditions: Escherichia coli, ATCC25922; 35 °C, 18 h; read-out: MIC E. coli
Source text: as §1, §2

[3] = tested on: Staphylococcus aureus (ATCC 29213); test: Antibacterial assay, microbroth dilution MIC; type: cell-based; conditions: Staphylococcus aureus, ATCC29213; 35 °C, 18 h; read-out: MIC S. aureus
Source text: as §1, §2

[4] = tested on: Monilia albicans (ATCC 10231); test: Antifungal assay, microbroth dilution MIC; type: cell-based; conditions: Candida albicans, ATCC10231; 35 °C, 18 h; read-out: MIC M. albicans
Source text: as §1, §2

[5] = tested on: Bel-7402 hepatoma cell line; test: MTT antiproliferative assay; type: cell-based, human; conditions: for IC50: Homo sapiens, Bel-7402, MTT, 72 h, mean ± SD of three experiments, read-out: IC50 Bel-7402; for SI (selectivity index): SI = IC50, L-02/IC50, Bel-7402
Procedure: (§3) The antiproliferative activity of 9a–i against four human cancer cell lines K562 leukemia cell line, MGC-803 gastric cancer cell line, CaEs-17 esophageal cancer cell line, and Bel-7402 hepatoma cell line, and human normal liver cells L-02 was evaluated by MTT assay (Table 2).
(§4) MTT assay was developed to monitor mammalian cell survival and proliferation in vitro [32]. CaEs-17 cells (K562, Bel-7402 and MGC-803 cells) from American Type Culture Collection (ATCC, Manassas, VA, USA) were cultivated in RPMI-1640 medium supplemented with 5% fetal bovine serum (v/v), 100 U/mL penicillin, and […] streptomycin. Cells (5 × 10^4 cell/mL) at the log phase of their growth cycle were added to each well of a 96-well plate (100 µL/well) and incubated for 24 h at 37 °C in a humidified atmosphere of 5% CO2. Then, cells were treated with or without test compounds in different concentrations. After 72 h, 5 mg/mL MTT solution (20 µL per well) was added. Cells were incubated at 37 °C. After 4 h, MTT solution was removed and DMSO was added to each well (150 µL). Ten minutes later at room temperature, the optical density (OD) values were measured at the wavelength of 490 nm on a Microplate Reader NO. 550 (BIO-RAD Instruments Inc., Hercules, CA, USA). In this experiment, 10 µg/mL of Taxol was used as the positive control and 0.1% DMSO was used as the negative reference.

K562 leukemia cell line = test: MTT antiproliferative assay; type: cell-based, human; conditions: MTT, 72 h, mean ± SD of three experiments, read-out: IC50 K562
Procedure: as §3, §4

[6] = tested on: MGC-803 gastric cancer cell line; test: MTT antiproliferative assay; type: cell-based, human; conditions: MTT, 72 h, mean ± SD of three experiments, read-out: IC50 MGC-803
Procedure: as §3, §4

[7] = tested on: CaEs-17 esophageal cancer cell line; test: MTT antiproliferative assay; type: cell-based; conditions: Homo sapiens, CaEs17; MTT, 72 h, mean ± SD of three experiments; read-out: IC50 CaEs-17
Procedure: as §3, §4

[8] = tested on: human normal liver cells L-02; test: MTT assay on normal cells; type: cell-based; conditions: MTT, 72 h, normal liver cells, mean ± SD of three experiments, read-out: IC50 L-02
Procedure: as §3, §4

Bel-7402 cells [9] = test: Cell cycle distribution by PI staining and flow cytometry; type: cell-based, human; conditions: 48 h, control 25.51%
Source text: Cell cycle arrest is an important sign for inhibition of proliferation and the series of events that take place in a cell leading to its division and replication. […] As the inhibitory effect of 9f on cell proliferation was observed, we next assessed the effect on the cell cycle distribution of Bel-7402 cells by flow cytometry (Figure 2). […] Compound 9f could influence Bel-7402 cell cycle progression at low micromolar concentrations in a dose-dependent manner.
Bel-7402 cells (5.0 × 10^3 cells/well) were plated in 6-well plates and incubated for 24 h, and then incubated with different concentrations (0.25, 0.5 and 1 μM) of 9f at 37 °C for 48 h. After 48 h treatment, cells were treated with 70% ethanol and RNase, sequentially, and stained with PI [34]. Cellular DNA content was measured by a flow cytometer for cell cycle distribution analysis.

Bel-7402 cells [10] = test: Apoptosis by Annexin-V and PI double staining, flow cytometry; type: cell-based, human; conditions: 72 h; for total percentage of apoptotic cells (early and late, Q2 + Q4): vehicle 7.88%
Procedure: To examine the potent cancer cell antiproliferative effect of 9f on Bel-7402 cells, the number of apoptotic cells was monitored using flow cytometry. The total percentage of apoptotic cells (early and late, Q2 + Q4) was 7.88% treated with a vehicle alone.
Bel-7402 cells were incubated with different concentrations (0.25, 0.5 and 1 μM) of 9f for 72 h. Then, Annexin-V and PI double staining was used to detect apoptotic cells to analyze apoptosis according to the manufacturer’s instructions by flow cytometry.

Bel-7402 cells [11] = test: Mitochondrial membrane potential, JC-1 staining, flow cytometry; type: cell-based, human; conditions: 48 h, 0 μM 4.62%
Procedure: In the field of cancer, cellular apoptosis plays a very important role. The loss of mitochondrial membrane potential is a key event during drug-induced apoptosis. In order to investigate the mitochondria related effect of 9f, the fluorescent probe JC-1 (Keygen, KGA601, Nanjing, China) was used to detect the changes on mitochondrial membrane potential. Before Bel-7402 cells were stained with JC-1, cells were incubated with 0, 0.15, 0.3, and 0.6 μM of 9f. Then, the flow cytometry analysis was carried out to determine the cell numbers with collapsed mitochondria in different cell groups (Figure 4).
Bel-7402 cells were cultured in six-well plates after treatment with 9f or vehicles for 48 h. The cells were cells were collected by trypsinization, washed with PBS (Sigma Chemical Co., Shanghai, China) and stained according to the manufacturer’s instruction (Keygen, KGA601, Nanjing, China) with the lipophilic cationic dye JC-1. The flow cytometry analysis was carried out to monitor the percentage of cells with healthy or collapsed mitochondrial membrane potentials.

| Structure (SMILES) | MIC [1] [µg/mL] | MIC [2] [µg/mL] | MIC [3] [µg/mL] | MIC [4] [µg/mL] | IC50 [5] [nM] | SI (selectivity index) [5] | IC50 (K562 leukemia cell line; Homo sapiens, K562, 72 h) [nM] | IC50 ([6]; Homo sapiens, MGC-803, 72 h) [nM] | IC50 [7] [nM] | IC50 [8] [nM] | melting point [°C] | also measured |
| --- | --- | --- | --- | --- | --- | --- | --- | --- | --- | --- | --- | --- |
| C=C1C(=O)[C@@]23C(=O)O[C@H]4CCC(C)(C)[C@H]5[C@H](O)OC[C@@]45[C@@H]2CC[C@@H]1[C@H]3OC(=O)CCC(=O)OCCCOc1no[n+]([O-])c1S(=O)(=O)c1ccccc1 [Compound 9d] | 2 (≈ 2.69 µM) | > 100 | 4 (≈ 5.37 µM) | > 100 | 1230 ± 80 | 11.0 | 2150 ± 120 | 1500 ± 100 | 4980 ± 420 | 13600 ± 1310 | 110 to 112 |  |
| C=C1C(=O)[C@@]23C(=O)O[C@H]4CCC(C)(C)[C@H]5[C@H](O)OC[C@@]45[C@@H]2CC[C@@H]1[C@H]3OC(=O)CCCC(=O)OCCCOc1no[n+]([O-])c1S(=O)(=O)c1ccccc1 [Compound 9e] | 16 (≈ 21.1 µM) | > 100 | 16 (≈ 21.1 µM) | > 100 | 920 ± 50 | 18.6 | 1920 ± 90 | 1290 ± 120 | 4270 ± 350 | 17200 ± 770 | 82 to 84 |  |
| C=C1C(=O)[C@@]23C(=O)O[C@H]4CCC(C)(C)[C@H]5[C@H](O)OC[C@@]45[C@@H]2CC[C@@H]1[C@H]3OC(=O)c1ccccc1C(=O)OCCCOc1no[n+]([O-])c1S(=O)(=O)c1ccccc1 [Compound 9f] | 64 (≈ 80.7 µM) | > 100 | 32 (≈ 40.4 µM) | > 100 | 720 ± 40 | 26.1 | 1680 ± 120 | 1110 ± 50 | 3600 ± 120 | 18800 ± 1250 | 128 to 130 | cells in S phase (Bel-7402 cells [9]; 0.25 μM): 31.78%; cells in S phase (Bel-7402 cells [9]; 0.5 μM): 45.33%; cells in S phase (Bel-7402 cells [9]; 1 μM): 49.78%; apoptotic cells, fold of control group (Bel-7402 cells [10]; 0.25 μM): 2.76 fold; total percentage of apoptotic cells (early and late, Q2 + Q4) (Bel-7402 cells [10]; 0.25 μM): 21.74%; apoptotic cells, fold of control group (Bel-7402 cells [10]; 0.5 μM): 4.54 fold; total percentage of apoptotic cells (early and late, Q2 + Q4) (Bel-7402 cells [10]; 0.5 μM): 35.78%; apoptotic cells, fold of control group (Bel-7402 cells [10]; 1 μM): 8.01 fold; total percentage of apoptotic cells (early and late, Q2 + Q4) (Bel-7402 cells [10]; 1 μM): 63.15%; percentage of apoptotic cells (collapsed mitochondria, JC-1) (Bel-7402 cells [11]; 0.15 μM): 8.81%; percentage of apoptotic cells (collapsed mitochondria, JC-1) (Bel-7402 cells [11]; 0.3 μM): 21.82%; percentage of apoptotic cells (collapsed mitochondria, JC-1) (Bel-7402 cells [11]; 0.6 μM): 25.98% |
| C=C1C(=O)[C@@]23C(=O)O[C@H]4CCC(C)(C)[C@H]5[C@H](O)OC[C@@]45[C@@H]2CC[C@@H]1[C@H]3OC(=O)CCC(=O)OCCCCOc1no[n+]([O-])c1S(=O)(=O)c1ccccc1 [Compound 9g] | 16 (≈ 21.1 µM) | > 100 | 16 (≈ 21.1 µM) | > 100 | 1270 ± 110 | 9.1 | 2260 ± 80 | 1430 ± 80 | 5130 ± 220 | 11600 ± 390 | 85 to 87 |  |
| C=C1C(=O)[C@@]23C(=O)O[C@H]4CCC(C)(C)[C@H]5[C@H](O)OC[C@@]45[C@@H]2CC[C@@H]1[C@H]3OC(=O)CCCC(=O)OCCCCOc1no[n+]([O-])c1S(=O)(=O)c1ccccc1 [Compound 9h] | 16 (≈ 20.7 µM) | > 100 | 16 (≈ 20.7 µM) | > 100 | 1080 ± 50 | 11.1 | 2110 ± 160 | 1490 ± 110 | 4680 ± 310 | 12100 ± 1080 | 78 to 80 |  |
| C=C1C(=O)[C@@]23C(=O)O[C@H]4CCC(C)(C)[C@H]5[C@H](O)OC[C@@]45[C@@H]2CC[C@@H]1[C@H]3OC(=O)c1ccccc1C(=O)OCCCCOc1no[n+]([O-])c1S(=O)(=O)c1ccccc1 [Compound 9i] | 2 (≈ 2.48 µM) | > 100 | 16 (≈ 19.8 µM) | > 100 | 780 ± 40 | 18.6 | 1250 | 1860 | 3820 ± 190 | 14600 ± 860 | 126 to 128 | IC50 (K562 leukemia cell line): 1860 ± 180 nM; IC50 [6]: 1250 ± 100 nM |
